Experimental data taken from ChEMBL document CHEMBL1201862, “PubChem BioAssay data set” (2004).
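Exposure lasted 48 hours, with cells grown in 96-well plates and compounds tested at five concentrations. Abbreviation: GI50, concentration required for 50% inhibition of growth.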 Active and inactive are the calls of the source. Cut-off read from the data, not from the text of the source: active = GI50 up to about 1.1 µM and inactive = higher.

Assays:
Assay in all cases: inhibition of tumour cell growth, NCI panel, 48 h
SK-MEL-28 = system: SK-MEL-28
NCI-H460 = system: NCI-H460
OVCAR-4 = system: OVCAR-4
SK-MEL-2 = system: SK-MEL-2
CAKI-1 = system: CAKI-1
EKVX = system: EKVX
K562 = system: K562
COLO 205 = system: COLO 205
SW-620 = system: SW-620
MDA-N = system: MDA-N
Malme-3M = system: Malme-3M
SK-OV-3 = system: SK-OV-3
MOLT-4 = system: MOLT-4
HOP-62 = system: HOP-62
Hs-578T = system: Hs-578T
OVCAR-5 = system: OVCAR-5
SF-268 = system: SF-268
NCI/ADR-RES = system: NCI/ADR-RES
T47D = system: T47D
M14 = system: M14

SMILES	GI50 (SK-MEL-28)	GI50 (NCI-H460)	GI50 (OVCAR-4)	GI50 (SK-MEL-2)	GI50 (CAKI-1)	GI50 (EKVX)	GI50 (K562)	GI50 (COLO 205)	GI50 (SW-620)	GI50 (MDA-N)	GI50 (Malme-3M)	GI50 (SK-OV-3)	GI50 (MOLT-4)	GI50 (HOP-62)	GI50 (Hs-578T)	GI50 (OVCAR-5)	GI50 (SF-268)	GI50 (NCI/ADR-RES)	GI50 (T47D)	GI50 (M14)
O=C(/C=C/c1ccc(OCc2ccccc2)cc1)NCc1ccc(C(=O)NCCc2c[nH]c3ccccc23)cc1	74.5 µM (inactive)	15.4 µM (inactive)	7.76 µM (inactive)	31 µM (inactive)	9.18 µM (inactive)	> 87.1 µM (inactive)	44.4 µM (inactive)	> 75.5 µM (inactive)	> 65.2 µM (inactive)	> 100 µM (inactive)	12.9 µM (inactive)	15.7 µM (inactive)	> 59.8 µM (inactive)	3.66 µM (inactive)	6.35 µM (inactive)	18.2 µM (inactive)	11.1 µM (inactive)	> 100 µM (inactive)	30.4 µM (inactive)	27.8 µM (inactive)
COC(=O)CCC(C)[C@H]1CCC2C3C(C[C@H](OC(C)=O)[C@@]21C)[C@@]1(C)CCC2(C[C@H]1C[C@H]3OC(C)=O)OOC1(CCCCCCC1)OO2 (stereo not given in full)	> 100 µM (inactive)	3.24 µM (inactive)	39 µM (inactive)	> 100 µM (inactive)	2.55 µM (inactive)	1.36 µM (inactive)	4.67 µM (inactive)	7.62 µM (inactive)	6.3 µM (inactive)	> 100 µM (inactive)	9.89 µM (inactive)	> 100 µM (inactive)	3.12 µM (inactive)	4.99 µM (inactive)	4.05 µM (inactive)	> 100 µM (inactive)	6.27 µM (inactive)	> 100 µM (inactive)	2.02 µM (inactive)	27.9 µM (inactive)
O=C(O)C(Cc1ccccc1)N1C(=O)c2ccccc2C1=O (stereo not given)	14.4 µM (inactive)	> 100 µM (inactive)	> 100 µM (inactive)	> 100 µM (inactive)	> 100 µM (inactive)	93.1 µM (inactive)	> 100 µM (inactive)	> 100 µM (inactive)	18.7 µM (inactive)	> 100 µM (inactive)	> 100 µM (inactive)	> 100 µM (inactive)	> 100 µM (inactive)	> 100 µM (inactive)	> 100 µM (inactive)	> 100 µM (inactive)	> 100 µM (inactive)	> 100 µM (inactive)	> 100 µM (inactive)	> 100 µM (inactive)
COc1cccc(/C=N/n2c(C)n[nH]c2=O)c1	> 100 µM (inactive)	> 100 µM (inactive)	> 100 µM (inactive)	> 100 µM (inactive)	60.5 µM (inactive)	32 µM (inactive)	> 100 µM (inactive)	> 100 µM (inactive)	> 100 µM (inactive)	> 100 µM (inactive)	> 100 µM (inactive)	> 100 µM (inactive)	> 100 µM (inactive)	80.7 µM (inactive)	16.8 µM (inactive)	> 100 µM (inactive)	> 100 µM (inactive)	> 100 µM (inactive)	> 100 µM (inactive)	> 100 µM (inactive)
CCCCCCCC/C=C(\Br)C(O)C(Br)Br (stereo not given)	29.2 µM (inactive)	30.4 µM (inactive)	20.6 µM (inactive)	24.8 µM (inactive)	19.5 µM (inactive)	28.2 µM (inactive)	69.7 µM (inactive)	18.9 µM (inactive)	16.3 µM (inactive)	21.8 µM (inactive)	21.1 µM (inactive)	26.6 µM (inactive)	> 100 µM (inactive)	19.6 µM (inactive)	22.8 µM (inactive)	19.3 µM (inactive)	23.2 µM (inactive)	26.2 µM (inactive)	31 µM (inactive)	22.7 µM (inactive)
Cn1c(=O)[nH]c2nccnc2c1=O	> 10 µM (inactive)	> 10 µM (inactive)	> 10 µM (inactive)	> 10 µM (inactive)	> 10 µM (inactive)	> 10 µM (inactive)	> 10 µM (inactive)	> 10 µM (inactive)	> 10 µM (inactive)	> 10 µM (inactive)	> 10 µM (inactive)	> 10 µM (inactive)	> 10 µM (inactive)	> 10 µM (inactive)	> 10 µM (inactive)	> 10 µM (inactive)	> 10 µM (inactive)	> 10 µM (inactive)	> 10 µM (inactive)	> 10 µM (inactive)
CC(=O)Nc1sc([N+](=O)[O-])cc1S(=O)(=O)c1ccc(Cl)cc1	11 µM (inactive)	1.65 µM (inactive)	1.86 µM (inactive)	0.92 µM (active)	3.31 µM (inactive)	3.59 µM (inactive)	5.47 µM (inactive)	1.29 µM (inactive)	5.37 µM (inactive)	3.92 µM (inactive)	2.48 µM (inactive)	2.5 µM (inactive)	3.78 µM (inactive)	1.39 µM (inactive)	3.56 µM (inactive)	4.7 µM (inactive)	4.35 µM (inactive)	3.22 µM (inactive)	2.04 µM (inactive)	2.02 µM (inactive)
Cc1cc(OC2OC(CO)C(O)C(O)C2O)ccc1O (stereo not given)	> 100 µM (inactive)	> 100 µM (inactive)	> 100 µM (inactive)	> 100 µM (inactive)	> 100 µM (inactive)	> 100 µM (inactive)	> 100 µM (inactive)	> 100 µM (inactive)	> 100 µM (inactive)	> 100 µM (inactive)	> 100 µM (inactive)	> 100 µM (inactive)	> 100 µM (inactive)	> 100 µM (inactive)	> 100 µM (inactive)	> 100 µM (inactive)	> 100 µM (inactive)	> 100 µM (inactive)	> 100 µM (inactive)	> 100 µM (inactive)
